Experiment [1] concerns human peripheral blood mononuclear cells (PBMC). Briefly: IFNγ ELISPOT of human PBMC with epitope peptides. It counts as cell-based. Conditions: CD105 and HIF1α peptides. The text has this: (§1) A plurality of immunological assays may be used with the methods or processes described herein to test at least one peptides of putative epitopes or nucleic acids encoding peptides of putative epitopes to determine if the peptide of the putative epitope elicits an immune response, often the sub-type of the immune response may be determined, often the immunologic assay may be an ELISPOT assay, an ELISA assay, a multiplex assay or the like. For example, a suitable immunologic assay may include performing an ELISPOT assay using cells derived from donors. The ELISPOT assay may include isolating peripheral blood mononuclear cells (PBMC) from at least 10, preferably at least 40, subjects, often the subjects are human donors. The amount of at least one cytokine production in cells following administration of the peptides of putative epitopes may be determined by the ELISPOT assay. The at least one cytokine may be IFNγ and/or IL-10 such that data indicating cytokine production may represent a positive or a negative response of cells to the peptide sequence of the putative epitope. In some cases, positive responses may have a statistically significant difference (p<0.05) between a mean number of spots from five replicates in the experimental wells and the mean number from no antigen control wells. In other cases, negative responses may not have a statistically significant difference (p<0.05) between a mean number of spots from five replicates in the experimental wells and the mean number from no antigen control wells.
(§2) This example describes the identification of unique and discrete amino acid sequences of antigenic epitopes from breast cancer stem cell and epithelial mesenchymal transformation peptides CD105 and HIF-1a, both of which are promiscuous MHC class II binders and unexpectedly stimulate high (magnitude and incidence) interferon gamma (IFNγ) and low or no interleukin (IL)-10 responses from human peripheral blood mononuclear cells (PBMC). CD105 and HIF1α have been juxtaposed to allow construction of extended epitope sequences for inclusion in either a peptide or DNA plasmid-based multi-antigen polyepitope CD4+ T-cell vaccine targeting breast cancer stem cell and epithelial mesenchymal transformation antigens in cancer patients.
(§3) […] peptides, predicted to bind promiscuously to human MHCII, were selected using web-based algorithms according to the methods described herein. Peripheral blood mononuclear cells (PBMC) from 20 female breast cancer patients were cryopreserved and evaluated by ELISPOT for antigen specific IFNγ or IL-10 secretion, according to our published methods. […] Data is reported as the mean number of spots for each experimental antigen minus the mean number of spots detected in no antigen control wells (corrected spots per well: CSPW). Positive responses were defined by a statistically significant difference (p<0.05) between the mean number of spots from five replicates in the experimental wells and the mean number from no antigen control wells for an individual (see FIG. 15).
(§4) The unpaired, two-tailed Student's t-test, Fischer's exact test or X^2 test was used to evaluate differences between groups. […] All statistical analyses were performed using GraphPad Prism 5.04 (e.g., GraphPad Software).

For experiment [2] the test system is unchanged. The experiment can be described thus: IL-10 ELISPOT of human PBMC with epitope peptides. The note with it: CD105 and HIF1α peptides. The format is cell-based.
Description: as §1, §2, §3, §4

This note sets out measurements from patent US20170266269A1, “METHODS OF IDENTIFYING ANTIGENS FOR VACCINES” (UNIVERSITY OF WASHINGTON THROUGH ITS CENTER FOR …, priority 2014, published 2017).

On to “CD105 p626-642: peptide at the C-terminus of CD105 (VVAVAAPASSESSSTNH; UniProt P17813 626-642, looked up, fragment)”, for which, in experiment [1], the IFNγ response result was “strong”. Further, the IL-10 response entry in experiment [2] is “low or no”.

On to “GHKEAHILRVLPGHSAGPRTVTV [CD105 p214-236]”, for which the IFNγ response result in experiment [1] was “strong”. Moreover, in experiment [2], the IL-10 response entry is recorded as “low or no”.

On to LHLAYNSSLVTFQEP [CD105 p116-130], for which the IFNγ response result in experiment [1] is reported as “strong”. Also, the IL-10 response entry in experiment [2] is “low or no”.

Take MRLTISYLRVRKLLDAGDLDIED [HIF1α p60-82]: the IFNγ response result in experiment [1] is listed as “strong”. For the same substance, the IL-10 response result in experiment [2] is on record as “no or low”.

For VLLVLSVNSSVFLHLQALGI [CD105 p 96-114], in experiment [1], the IFNγ response result is recorded as “strong”. Moreover, the IL-10 response entry in experiment [2] is recorded as “low or no”.

Regarding YELAHQLPLPHNVSSH [HIF1α p38-53], the IFNγ response result in experiment [1] is listed as “strong”. In addition, the IL-10 response result in experiment [2] is reported as “no or low”.
